Drawing on PubChem BioAssay AID2252 (Southern Research Specialized Biocontainment Screening …, 2010), this text covers EC50 for 100 molecules.

For the test, the system named is THP-1 viability, CellTiter-Glo luminescence, 72 h. The test is described as follows: PubChem AID 2252.

Some results are limits rather than exact numbers.

With `Cc1nc2ccccc2nc1N/N=C/c1ccc(O)cc1O`, the 50% effective concentration (EC50) is 3.62 µM. With `CCCOc1ccc(CSC2=NCCN2)cc1[N+](=O)[O-]`, the 50% effective concentration (EC50) is 20.8 µM. As for `CNC[C@H](Cc1ccccc1)NC[C@@H](Cc1cccc2ccccc12)NCCc1ccc(C)cc1`, the figure is 4.01 µM. Then `Cc1cc(C)c2nc(C)cc(N/N=C/c3ccc(O)cc3)c2c1`, with 1.91 µM; and `COc1cccc(/C=N\NC(=O)Cn2nnc3ccccc32)c1O`, with 14.6 µM. In the case of `O=C(NC(=S)NNC(=O)c1ccco1)c1ccc(Br)cc1`, the EC50 is 19.7 µM. Then `CCCN(C(=O)CSc1nc2ccccc2n1CC)C1CCS(=O)(=O)C1` (stereo not given), with 14.8 µM. Take `Cc1ccc(C(=O)NNC(=S)NC(=O)c2ccccc2)cc1`: the EC50 is 8.09 µM.

Take `Oc1c(CN2CCN(c3ccccn3)CC2)cc(Cl)c2cccnc12`: the 50% effective concentration (EC50) is 1.64 µM. As for `CCc1c(C)nc2cc(-c3cc(OC)cc(OC)c3)nn2c1N1CCCC1`, the figure is 31 µM; as for `CC(C)C1N=C(c2ccc3c(c2)OCO3)CC(c2ccccc2O)N1` (stereo not given), 43.3 µM; as for `O/N=C/C1=C(Cl)c2ccccc2CC1`, below 0.1 µM. As to `CC(=O)Nc1nc(C)c(-c2csc(Nc3ccc(O)cc3)n2)s1`, the concentration for a half-maximal effect (EC50) was 4.01 µM.

As to `Cc1ccc2nc(NCc3ccccc3)[nH]c2c1`, the EC50 is 3.85 µM. On to `CN1CCN(Cc2cc(COCc3ccccc3)c3cccnc3c2O)CC1`, for which the concentration giving a half-maximal response (EC50) was 2.82 µM. With `COc1ccc(NS(=O)(=O)c2cc(NC(=O)c3ccc(C)s3)ccc2N2CCOCC2)cc1`, the concentration giving a half-maximal response (EC50) was 21.6 µM. Consider `CN(C)c1ccc(Nc2nc(N)c3ccccc3n2)cc1`, for which the concentration giving a half-maximal response (EC50) was 6 µM. Take `C[C@H]1c2cccc(O)c2C(O)=C2C(=O)[C@]3(O)C(O)=C(C(N)=O)C(=O)[C@@H](N(C)C)[C@@H]3[C@@H](O)[C@@H]21`: the concentration giving a half-maximal response (EC50) is 29 µM. Take `CCOc1cccc(CNCCc2c(C)[nH]c3ccc(OC(F)(F)F)cc23)c1O`: the EC50 was 3.51 µM. For the molecule `C#CCOCCOCCOCCNc1nc(N2CCN(C(=O)CCCCCCCCCCNC(=O)[C@H](CCCCN)n3cc(CCO)nn3)CC2)nc(N2CCN(C(=O)CCCCCCCCCCNC(=O)[C@H](CCCN=C(N)N)n3cc(C[C@@H](C)CC)nn3)CC2)n1`, the concentration for a half-maximal effect (EC50) is 11.3 µM.

In the case of `CCN(CCCNC(=O)c1cn(CC)c2ccc(S(=O)(=O)N(C)C)cc2c1=O)c1cccc(C)c1`, the EC50 is 34.8 µM. With `CCCCCc1ccc(OCCC[n+]2ccccc2)c(CCCCC)c1`, the EC50 is 1.59 µM. Then `O=C1c2ccccc2C(=O)N1CCCP(=O)(O)CCc1ccccc1`, with below 0.1 µM; and `CNCCCC1Sc2ccccc2Oc2ccccc21` (stereo not given), with 23.6 µM; and `N#C/C(N=Nc1ccccc1O)=N\Nc1ccccc1O`, with 4.42 µM.

Consider `Cn1c(=O)c2c(nc(Br)n2CCSc2nc3ccccc3o2)n(C)c1=O`, for which the concentration giving a half-maximal response (EC50) was below 0.1 µM. Take `Cc1ccccc1S(=O)(=O)NNC(=O)C(=O)NNc1ccccn1`: the EC50 was 24.2 µM. For `O=C(Nc1ccncc1)c1cc(-c2ccccn2)nc2ccccc12`, the concentration giving a half-maximal response (EC50) was 23.7 µM. As for `CCN(CC)CCn1c(NCc2cc(OC)ccc2OC)nc2ccccc21`, the EC50 is 42.7 µM. Turning to `CN1CCN(c2nc3cc(C(F)(F)F)ccc3n3cccc23)CC1`, the EC50 is 42.3 µM. As for `CCN1CCN(C2=C(NS(=O)(=O)c3ccc(Br)cc3)C(=O)c3ccccc3C2=O)CC1`, the figure is 18.2 µM; as for `CCC(=O)c1ccc(OCC(O)CNCCc2ccc(Cl)cc2)cc1` (stereo not given), 28.9 µM.

`CC(=O)CC1OC(=O)C(Br)=C1NCc1ccccc1` (stereo not given): the concentration giving a half-maximal response (EC50) is 9.9 µM. With `O=C(N/N=C/c1ccccn1)c1cccs1`, the concentration giving a half-maximal response (EC50) was 26.4 µM. `COc1ccc(C(=O)NC(=S)NNC(=O)c2cnccn2)cc1OC`: the 50% effective concentration (EC50) is 6.82 µM. Turning to `O=C(CCN1CCN(C(=O)c2ccccc2)CC1)c1ccc(Br)cc1`, the concentration giving a half-maximal response (EC50) was 40.5 µM. For `O=C(/C=C/c1ccccc1)NNC(=O)c1ccco1`, the concentration giving a half-maximal response (EC50) was below 0.1 µM. Regarding `O=C(N/N=C/c1ccc([N+](=O)[O-])s1)c1ccccc1Br`, the EC50 is 15.2 µM. Then `Cc1ccc2c(c1)c1c(n2CC(O)CN2CCC(C)CC2)CCCC1` (stereo not given), with 16 µM; and `COc1ccc(C(C[N+](=O)[O-])C2(c3ccc(OC)c(OC)c3)C(=O)c3ccccc3C2=O)cc1` (stereo not given), with 9.85 µM. `COc1cc([N+](=O)[O-])cc(/C=N/NC(=O)c2cccnc2)c1O`: the EC50 is 29.7 µM. As for `COc1cc(CNC2CCCC2)cc(Cl)c1OCc1ccccc1Cl`, the figure is 14.4 µM; as for `C#CCOCCOCCOCCNc1nc(N2CCN(C(=O)CCCCCCCCCCNC(=O)[C@H]([C@@H](C)CC)n3cc(CCCCN=C(N)N)nn3)CC2)nc(N2CCN(C(=O)CCCCCCCCCCNC(=O)[C@H](CO)n3cc(CCCCCN)nn3)CC2)n1`, 7.5 µM; as for `COc1ccc(NC(=O)CN(C)S(=O)(=O)c2ccc(Cl)cc2)cc1Cl`, below 0.1 µM. `S=C1SCN(Cc2cccnc2)CN1Cc1cccnc1`: the EC50 was 3.92 µM. Regarding `CCOc1ccc(-c2c[n+]3c(n2-c2ccccc2)CCCCC3)cc1`, the EC50 is 25.6 µM. `CCCCCc1ccc(OCCCC[n+]2cccc(C)c2)c(CCCCC)c1`: the half-maximal effective concentration (EC50) was 1.05 µM.

With `Cc1ccc(C(=O)N/C(=C\c2ccc(-c3ccc(Br)cc3)o2)C(=O)NCCCN(C)C)cc1`, the EC50 is 4.18 µM. Then `CN1CCN(CC(=O)N2CCn3c4c(c5cc(C6CCCCC6)ccc53)CCCC42)CC1` (stereo not given), with 6.66 µM; and `Fc1ccc(Nc2ccnc(Nc3ccc(F)cc3)n2)cc1`, with 11.7 µM. Then `CCOc1cc(CNC(C)(C)CO)cc(Br)c1OCc1ccc(Cl)cc1Cl`, with 5.53 µM; and `O=C(Nc1cccc(C2=NCCN2)c1)Nc1cccc(C2=NCCN2)c1`, with 13.2 µM; and `Oc1ccc(/C=N/N=C(c2ccccc2)c2ccccc2)c(O)c1O`, with 7.47 µM. As for `Cc1cc(OCCCCCN2CCCC2)ccc1Cl`, the figure is 48.7 µM; as for `CC(C)N=C(N)N=C(N)Nc1ccc(Cl)cc1`, 35.1 µM; as for `C=C1c2c(Cl)ccc(O)c2C(O)=C2C(=O)[C@]3(O)C(O)=C(C(N)=O)C(=O)[C@@H](N(C)C)[C@@H]3[C@@H](O)C12` (stereo not given in full), 13.4 µM. Take `O=C(/C=C/c1ccccc1)NC(=S)NNC(=O)c1cnccn1`: the concentration for a half-maximal effect (EC50) is 4.6 µM. As for `c1ccc(Nc2nc(NCC3CCCO3)c3ccccc3n2)cc1` (stereo not given), the figure is 3.83 µM; as for `O=C1C(Cl)=C(NCc2cccnc2)C(=O)c2ccccc21`, 12.5 µM. Then `COc1ccc(CNC(=O)CCC(=O)N2C[C@H]3C[C@H](C2)c2cccc(=O)n2C3)cc1`, with below 0.1 µM; and `Cc1nc2c(=O)n(C)c(=O)nc-2n(C)n1`, with 2.17 µM. Regarding `O=C(/C=C/c1cccs1)NC(=S)NNC(=O)c1ccccc1O`, the half-maximal effective concentration (EC50) is 2.79 µM.

For `CCCCCSc1cc(OC)c(CCNC)cc1OC`, the concentration for a half-maximal effect (EC50) was 13.9 µM. For `Cc1ccc(O)c(Nc2c3ccccc3nc3ccccc23)c1`, the EC50 is 14.2 µM.

Regarding `Cc1ccc(Cn2c(=N)c(C(=O)NCc3ccco3)cc3c(=O)n4ccccc4nc32)cc1`, the 50% effective concentration (EC50) was 42.6 µM. Then `Nc1nc(Nc2ccc(Cl)cc2)nc2ccccc12`, with 6.06 µM.

Take `CN1/C(=C\C=C\C2=[N+](C)c3ccc4ccccc4c3C2(C)C)C(C)(C)c2ccccc21`: the EC50 is 0.2 µM.

Turning to `N/C(=N\N=C/c1ccc(F)cc1)N/N=C\c1ccc(F)cc1`, the EC50 is 19 µM. Then `O=C(CC(=O)c1cc(Cl)ccc1O)c1ccccc1`, with 12.3 µM; and `O=[N+]([O-])c1cc(Cl)c2cccnc2c1O`, with 28.7 µM; and `C/C(Cn1nnc([N+](=O)[O-])n1)=N\NC(=O)c1ccccc1`, with 40 µM. Take `COc1ccc(NC(=O)CC2Sc3ncnn3C2=O)cc1` (stereo not given): the EC50 is 46.5 µM. Turning to `CN1CCN(c2nc(Nc3ccc(F)cc3)nc(Nc3ccc(F)cc3)n2)CC1`, the EC50 was 12.1 µM. As for `COC(=O)c1ccc(Cn2c(O)c(N=NC(N)=S)c3ccccc32)o1`, the figure is 12.7 µM; as for `O=C(N/N=C\C=C\c1ccc([N+](=O)[O-])o1)c1cccs1`, 34.8 µM. With `COc1ccc(Nc2nc(NCC3CCCO3)c3ccccc3n2)c(OC)c1` (stereo not given), the 50% effective concentration (EC50) is 9.34 µM.

Turning to `CCc1ccc2c(c1)CCCN2C(=O)c1ccccc1C(=O)O`, the EC50 is 38.3 µM.

Turning to `O=C(N/N=C/c1c(O)ccc2ccccc12)c1ccc(CO)nc1`, the concentration giving a half-maximal response (EC50) was 1.41 µM.

In the case of `CCCCCOc1ccc(CSC(=N)N)cc1[N+](=O)[O-]`, the EC50 was 14 µM.

With `CN1CCN(C(c2ccc(Cl)cc2)c2cc(Cl)c3cccnc3c2O)CC1` (stereo not given), the 50% effective concentration (EC50) is 3.11 µM. Then `CC1Cc2ccccc2N1S(=O)(=O)c1cccc(C(=O)N2CC(=O)Nc3ccccc32)c1` (stereo not given), with 46.1 µM. Regarding `CNCc1c(OCc2ccccc2F)ccc2ccccc12`, the EC50 was 15.2 µM. Then `Cc1ccc2c(c1)N/C(=C(\C=C(/Cl)[N+](=O)[O-])[N+](=O)[O-])N2`, with 26.8 µM. As for `Cc1ccc(C(C[N+](=O)[O-])Sc2ccc(N)cc2)cc1` (stereo not given), the figure is 21.8 µM. Take `O=C1c2c(O)ccc(O)c2C(=O)c2c(NCCNCCO)ccc(NCCNCCO)c21`: the 50% effective concentration (EC50) is below 0.1 µM.

Regarding `O=C(CCN1CCN(c2ccccc2)CC1)c1ccc(Br)cc1`, the EC50 is 38.2 µM. Then `COc1cc([N+](=O)[O-])cc(/C=N/NC(=O)C(C)Nc2cccc(C)c2)c1O` (stereo not given), with 27 µM; and `Fc1ccc(CCNCc2ccc(Cl)c(Cl)c2)cc1`, with 35.2 µM; and `CCCCCNC(=O)c1cn(CC)c2cc(N3CCN(C)CC3)c(F)cc2c1=O`, with 19.8 µM. As for `COC12C(COC(N)=O)C3=C(C(=O)C(C)=C(N)C3=O)N1CC1C2N1C` (stereo not given), the figure is 11.6 µM; as for `Cn1c(SCC(=O)N/N=C/c2ccc([N+](=O)[O-])s2)nnc1-c1ccc(Cl)cc1`, 7.71 µM; as for `Cc1ccc(C(C)C)c(OCCNC(=O)c2ccccc2O)c1`, 32.5 µM. Then `O=c1[nH]c(=S)ccn1C1OC(CO)C(O)C1O` (stereo not given), with 16.3 µM. Regarding `O=c1c(O)cccc2cc(O)c(O)c(O)c12`, the 50% effective concentration (EC50) is 24.2 µM. Turning to `CCCCCCCCC[n+]1cccc2c3ccccc3ccc21`, the EC50 is 0.82 µM. As for `CCCCCCCCCCn1c2c(c(=N)c3c1CCC3)CCC2`, the figure is 0.21 µM; as for `CCN1c2ccccc2NC2N=C(OC)C(c3ccccc3)C21` (stereo not given), 16.1 µM; as for `CCOC(=O)COc1cccc2c(=O)n(CC(=O)N3CCCCC3)ccc12`, 24.5 µM. As for `O=C(Nc1ccccc1)Nc1cccc(Cl)c1`, the figure is 43.7 µM; as for `Cn1c(-c2ccc(Cl)cc2)cnc1N`, 33.8 µM.

By EC50 is commonly meant the concentration needed to bring the measured effect to its halfway point.
